Assay: Calcein leakage from SUVs, stated for several vesicle compositions together
Settings: control peptide; all SUVs tested: PC:PE (60:40), PC:PE (80:20), PC:PG (60:40)

## melittin
  calcein leakage (in words): induced calcein leakage from all SUVs tested
